The source of these data is publication PMC10049495, “Antitumor Activity of PEGylated and TEGylated Phenothiazine Derivatives: Structure–Activity Relationship” (International Journal of Molecular Sciences, 2023).

Where “and” joins values, the source holds several entries; their conditions need not be identical. Equal values may be shown once. Read-outs that look alike come from different tables or passages of the source.

Experiment [1] has as its system normal human dermal fibroblasts (NHDF). Description: Cytotoxicity MTS assay on normal fibroblasts. Type of experiment: cell-based. Conditions: 48 h, tested 0.01-0.3 mM, read-out: Half maximal inhibition concentration (IC50). As for the experimental part: (§1) Cell culture: NHDF, HeLa, HOS, HepG2, MCF7, MeWo and CT-26 cells were cultivated in complete Eagle’s Minimal Essential Medium alpha (aMEM) containing a 1% Penicillin–Streptomycin–Amphotericin B mixture and a 10% fetal bovine serum under 5% CO2 humidified atmosphere at 37 °C. LN-229 cells were cultivated in DMEM with a 1% Penicillin–Streptomycin–Amphotericin B mixture and a 5% fetal bovine serum. U-118 cells were cultivated in DMEM with a 1% Penicillin–Streptomycin–Amphotericin B mixture and a 10% fetal bovine serum. StemPro™ Accutase™ Cell Dissociation Reagent was used for passaging MeWo and U-118 cells, and TrypLE Express was used for all other cell lines.
(§2) The working solutions were prepared by diluting the stock solutions with complete medium so that the final concentration of DMSO in the cell culture was 1%. The working solutions were used for incubation. Control cells were treated only with complete cell culture medium containing 1% DMSO.
(§3) Cytotoxicity MTS assay: In order to perform the MTS assay, cells were placed in culture-treated 96-well plates at densities of 5 × 10^3 cells/well (NHDF and CT-26), 7 × 10^3 cells/well (MCF7) and 10 × 10^3 cells/well (HOS, HeLa, HepG2, MeWo, LN-229, U-118) in 100 μL of a MEM medium/well and allowed to adhere for 24 h. After 24 h, the culture medium was replaced with the tested compound solutions at various concentrations, and the plates were incubated for another 48 h. Before the final reading, 20 μL CellTiter 96® Aqueous One Solution/well was added, and the plates were incubated for 1–4 h. Finally, the absorbance was recorded with a microplate reader at λ = 490 nm. The relative cell viability was expressed as a percentage of the viability of control, and the half maximal inhibitory concentration (IC50) was determined from the graphical representation of the cell viability vs. concentration. Graphical data were expressed as means ± standard error of the mean (S.E.M.). Statistical analysis was made with two-way ANOVA using Tukey’s multiple comparisons test. The difference was considered significant when p < 0.05. Data analysis was performed with GraphPad Prism software version 7.00 for Windows.
Background: Tetrazolium dyes change colour on reduction, which living cells bring about.

Experiment [2] relates to mouse colon carcinoma cell line (CT26). The experiment is described as follows: Cytotoxicity MTS assay on CT-26. Type of experiment: cell-based. Conditions: for IC50: CT-26, 48 h, MTS, tested 0.01-0.3 mM, read-out: Half maximal inhibition concentration (IC50); for Selectivity index (SI): IC50 NHDF / IC50 CT-26. As for the experimental part: as §1, §2, §3
Experiment [3] deals with cervical carcinoma (HeLa) cells. Description: Cytotoxicity MTS assay on HeLa. The experiment is classed as cell-based, human. The settings on record: for IC50: HeLa, 48 h, MTS, tested 0.01-0.3 mM, read-out: Half maximal inhibition concentration (IC50); for Selectivity index (SI): IC50 NHDF / IC50 HeLa. As for the experimental part: as §1, §2, §3
The test system of experiment [4] is liver cancer (HepG2) cells. Description: Cytotoxicity MTS assay on HepG2. The experiment is classed as cell-based, human. Conditions: for IC50: HepG2, 48 h, MTS, tested 0.01-0.3 mM, read-out: Half maximal inhibition concentration (IC50). As for the experimental part:
as §1, §2, §3

Experiment [5] relates to osteosarcoma (HOS) cells. The experiment is described as follows: Cytotoxicity MTS assay on HOS. The settings on record: 48 h, tested 0.01-0.3 mM, read-out: Half maximal inhibition concentration (IC50). Type of experiment: cell-based, human. As for the experimental part: as §1, §2, §3
Experiment [6] concerns glioblastoma (LN229) cells. Description: Cytotoxicity MTS assay on LN229. The experiment is classed as cell-based, human. Conditions: tested 0.01-0.3 mM, read-out: Half maximal inhibition concentration (IC50). As for the experimental part: as §1, §2, §3
For experiment [7], the system named is breast cancer (MCF7) cells. Description: Cytotoxicity MTS assay on MCF-7. The experiment is classed as cell-based, human. Conditions: for Selectivity index (SI): IC50 NHDF / IC50 MCF7; for IC50: MCF-7, 48 h, MTS, tested 0.01-0.3 mM, read-out: Half maximal inhibition concentration (IC50). As for the experimental part: as §1, §2, §3
Experiment [8] deals with malignant melanoma (MeWo) cells. The experiment is described as follows: Cytotoxicity MTS assay on MeWo. Type of experiment: cell-based, human. The settings on record: for Selectivity index (SI): IC50 NHDF / IC50 MeWo; for IC50: MeWo, 48 h, MTS, tested 0.01-0.3 mM, read-out: Half maximal inhibition concentration (IC50). As for the experimental part: as §1, §2, §3
The test system of experiment [9] is glioblastoma cell line (U-118). The experiment is described as follows: Cytotoxicity MTS assay on U-118. Conditions: for IC50: U-118, 48 h, MTS, tested 0.01-0.3 mM, read-out: Half maximal inhibition concentration (IC50). Type of experiment: cell-based, human. As for the experimental part:
as §1, §2, §3

Experiment [10] can be described thus: DPPH radical scavenging activity. The settings on record: for DPPH radical inhibition: 1 mM compound, ethanol, 1 h in the dark. The source says: In this light, the antioxidant activity of the studied phenothiazine derivatives was investigated using DPPH assay, measuring the dependence of the free radical inhibition on the concentration as highlighted by a decreasing of the absorbance of DPPH when the concentration of the compound is increasing. The results, expressed in percentage of inhibition, are represented in Figure 4.
Ex Vivo Radical Scavenging Activity: In order to evaluate antioxidant activity of the studied compounds, a bleaching method of the 1,1-diphenyl-2-picryl hydrazyl (DPPH) radical was used. Briefly, a stock solution of 2 mM of each compound in ethanol was prepared and then diluted to obtain 10 different concentrations from 1 mM to 0.0019 mM using a 96-well plate. The diluted solutions with different concentrations were mixed with an equal volume of ethanolic DPPH solution (0.05 mg/mL), and the mixtures were incubated in the dark at room temperature […] for 1 h. After incubation, the absorbance was read at 517 nm. Inhibition percentage was calculated using Equation (2), where Ac is the absorbance of the control sample (DPPH) and As is the absorbance of the mixtures. All measurements were made in triplicate. I % = (Ac-As)/Ac × 100 (2)
A general note: The DPPH test is a chemical assay of radical scavenging.

Experiment [11] has as its system HeLa. The settings on record: cited from earlier work.
The test system of experiment [12] is MCF-7. The settings on record: cited from earlier work.
The subject of experiment [13] is HepG2. The settings on record: cited from earlier work.

“4-((((10-(poly(ethylene glycol))-10H-phenothiazin-3-yl)methylene)amino)ethyl)benzenesulfonamide [PPEA]”: the IC50 in experiment [1] was 108 µM; in experiment [2] it was 29 µM; in experiment [3], 86 µM; in [4], 40 µM; in experiment [5], above 300 µM; in experiment [6] (LN229, 48 h) it was 109 µM. In addition, the IC50 in [7] was determined as 90 µM; in [8] it was 68 µM; in [9], 100 µM. In addition, the “Selectivity index (SI)” value was determined as 3.44 in [2]; 1.25 in experiment [3]; 2.5 in [4] (IC50 NHDF / IC50 HepG2); 1.11 in experiment [7]; 1.66 in [8]. This compound displayed a DPPH radical inhibition in [10] of 47%.
With “4-((((10-(poly(ethylene glycol))-10H-phenothiazin-3-yl)methylene)amino)methyl) benzenesulfonamide [PPMA]”, the IC50 was 150 µM in experiment [1]; 40 µM in experiment [2]; 116 µM in [3]; 54 µM in [4]; above 300 µM in experiment [5]; 239 µM in experiment [6] (LN229, 48 h). Besides, the IC50 was found to be 90 µM in experiment [7], 104 µM in experiment [8] and 92 µM in [9]. In addition, the “Selectivity index (SI)” value in experiment [2] is recorded as 3.75; in experiment [3], 1.36; in experiment [4] (IC50 NHDF / IC50 HepG2) it was 3; in experiment [7], 1.66; in experiment [8] it was 1.5; in [9] (IC50 NHDF / IC50 U118MG) it was 1.66. In experiment [10], this compound yielded a DPPH radical inhibition of 44%.
As for “10-(poly(ethylene glycol))-10H-phenothiazine-3-carbaldehyde [PPF]”, the IC50 is above 300 µM in [1]; 140 µM and 139 µM in [2]; above 300 µM in experiment [3]; 100 µM and 106 µM in [4]; above 300 µM in experiment [5]; above 300 µM in experiment [6] (LN229, 48 h). In addition, the IC50 was 270 µM in experiment [7], 235 µM in [8] and above 300 µM in [9]. Moreover, the “radical scavenging capacity (in words)” value in experiment [10] (DPPH, 0.0019-1 mM) is listed as “very low radical scavenging capacity”.
As to `OC(CNCCc1ccccc1)CN1c2ccccc2Sc2ccccc21` (stereo not drawn) [1-Phenethylamino-3-(10H-phenothiazin-10-yl)-2-propanol], the IC50 in experiment [11] was 10 µM.
Regarding `CC(=O)c1cc(C(=O)c2ccc3c(c2)Sc2ccccc2N3)c2c(C)cc(C)cn12` [1-[(10H-Phenothiazin-3-yl)carbonyl]-3-acetyl-6,8-dimethylindolizine], in experiment [12], the IC50 was above 10 µM.
For `COc1ccn2c(C(C)=O)cc(C(=O)c3ccc4c(c3)Sc3ccccc3N4)c2c1` [1-[(10H-Phenothiazin-3-yl)carbonyl]-3-acetyl-7-methoxyindolizine], the IC50 in experiment [12] was above 10 µM.
Take `CC(=O)c1cc(C(=O)c2ccc3c(c2)Sc2ccccc2N3)c2cc(C)ccn12` [1-[(10H-Phenothiazin-3-yl)carbonyl]-3-acetyl-7-methylindolizine]: the IC50 in [12] was above 10 µM.
With `CCN1c2ccc(-c3ccc(OC)cc3)cc2Sc2cc(-c3nnc4ccccn34)ccc21` [3-([1,2,4]Triazolo[4,3-a]pyridin-3-yl)-10-ethyl-7-(4-methoxyphenyl)-10H-phenothiazine], the IC50 in experiment [12] is 57.2 µM.
Take `CCN1c2ccc(-c3ccccc3)cc2Sc2cc(-c3nnc4ccccn34)ccc21` [3-([1,2,4]Triazolo[4,3-a]pyridin-3-yl)-10-ethyl-7-phenyl-10H-phenothiazine]: in experiment [12], the IC50 was 10.2 µM.
As for `Clc1ccc(-n2cc(CN3c4ccccc4Sc4ccccc43)nn2)cc1` [10-((1-(4-Chlorophenyl)-1H-1,2,3-triazol-4-yl)methyl)-10Hphenothiazine], in [13], the IC50 is 1.3 µM.
For the compound `COc1ccc(-n2cc(CN3c4ccccc4Sc4ccccc43)nn2)cc1` [10-((1-(4-Methoxyphenyl)-1H-1,2,3-triazol-4-yl)methyl)-10Hphenothiazine], in experiment [13], the IC50 is 15 µM.
Consider `COc1cc(Cn2cc(CN3c4ccccc4Sc4ccccc43)nn2)cc(OC)c1OC` [10-{[1-(3,4,5-Trimethoxybenzyl)-1H-1,2,3-triazol-4-yl]methyl}-10H-phenothiazine], for which the IC50 in experiment [12] was 0.8 µM.
Take `FC(F)(F)c1ccc2c(c1)N(Cc1cn(-c3ccc(Cl)cc3)nn1)c1ccccc1S2` [10-{[1-(4-Chlorophenyl)-1H-1,2,3-triazol-4-yl]methyl}-2-{trifluoromethyl}-10H-phenothiazine]: in experiment [12], the IC50 was 29.6 µM.
For the compound `c1ccc2c(c1)Nc1ccccc1S2` [PTZ, phenothiazine], the IC50 in experiment [1] (Homo sapiens) was 175 µM; in [2] (Mus musculus, CT26) it was 186 µM; in experiment [3] (Homo sapiens) it was 240 µM; in [4] (Homo sapiens), 73 µM; in [5] (Homo sapiens) it was above 300 µM; in experiment [6] (Homo sapiens, LN-229, LN229, 48 h), above 300 µM. In addition, the IC50 in [7] (Homo sapiens, MCF7) is 188 µM; in experiment [8] (Homo sapiens), above 300 µM; in experiment [9] (Homo sapiens), above 300 µM. For the same compound, the “Selectivity index (SI)” value in experiment [4] is 2.42. Also, in [10], the DPPH radical inhibition came to 67%.
As to `CN1CCN(CCCN2c3ccccc3Sc3ccc(C(F)(F)F)cc32)CC1` [Trifluoperazine], the IC50 in experiment [12] was 11.3 µM.
